Each structure is given as a SMILES string. Where “and” joins values, the source holds several entries; their conditions need not be identical. Identical values can stand only once. Counter-ions that a name gives are not always drawn. Like-named read-outs stand apart in the source and are kept apart here.

The subject of assay [1] is HeLa (cervical adenocarcinoma). The assay is described as follows: MTS cell viability assay, HeLa. The conditions noted are these: read-out: HeLa IC50. In kind it is cell-based. From the text:
(§1) Studies performed regarding cytotoxicity included the well-known MTS, Trypan Blue and MTT protocols. The MTS studies were done using the CellTiter 96®AQueous One Solution Cell Proliferation Assay (Promega Corporation, Madison, Wis. USA). Metabolically active, namely viable, cells turn MTS, a tetrazolium compound (3-(4,5-dimethylthiazol-2-yl)-5-(3-carboxymethoxyphenyl)-2-(4-sulfophenyl)-2H-tetrazolium, inner salt) into colored formazan, which is soluble in tissue culture medium. The measurement of the absorbance of the formazan is read at 490 nm. The ready to use reagent is added directly to the cells in media in 96-well plates, incubated 1-4 hours and the results are recorded by the plate reader. The IC50 is estimated by graphing the gathered data. The IC50 is the concentration of the tested material that inhibits 50% of growth or viability of the tested material compared to a control.
(§2) Three cell lines obtained from ATCC and maintained as directed by ATCC were tested: HeLa (cervical adenocarcinoma), A549 (lung carcinoma), and COS-7 (SV40 transformed monkey kidney). Studies of these cell lines are considered to be indicative of the effect of tested substances on mammalian, including human, diseases.
(§3) All compounds were dissolved in DMSO and DMSO is used as the placebo. The samples were first dissolved into 10 mM dilutions in DMSO and then diluted further to 5, 1, 0.5, 0.1, 0.05, and 0.01 mM solutions. These solutions were added to the media at a 1% concentration (1 μl to 100 μl media) to treat the cells with 100, 50, 10, 5, 1, 0.5, and 0.1 μM of the compound. […] Solutions were checked before use for precipitation, especially the 10 mM solutions. If there was precipitation, they were warmed 65° C. and added to warmed media.
(§4) Wells on a 96-well plate were seeded with 1.5-8×10^4 cells in 100 μl media and incubated overnight. The outside wells of the plate were filled with 200 μl sterile, deionized (DI) water to curb media evaporation. After 24 hours, test chemicals were prepared in media at a concentration of 1% media volume. The test sample media were added, mixing with pipette before adding 100 μl per well. Media was added to the “Media Only” wells. The well plate and its contents were incubated for 24-72 hours, depending on the study conducted. On the thy of the MTS assay, the MTS reagent was removed from the refrigerator and brought to room temperature. Using the multichannel pipette, 20 μl of the MTS reagent was added to each well and incubated for one to four hours. The plate was read at 490 nm with a reference wavelength of 690 nm after one hour in the incubator thereafter until the blank wells were at about 0.2 OD. The results were then scanned into a Microsoft® Excel® template designed to perform all necessary calculations whim data are entered. The data were checked for statistical errors; data points that are within 10% of the mean of the data points for that group were included. The average of the blanks (“Media Only”) were subtracted and the data were inserted into a chart that represents growth response, treated/untreated.
In general terms: Tetrazolium dyes change colour on reduction, which living cells bring about.

For another assay, the system named is VEGF. The experiment in a line: ELISA VEGF assay (DFO-treated cells). The conditions noted are these: VEGF released into media by DFO-treated cells, normalized to cell count; read-out: VEGF IC50. The class given is cell-based, Human. The text has this:
ELISA (Enzyme-Linked ImmunoSorbent Assay) VEGF studies were done following manufacturer's instructions using the Endogen® Human VEGF ELISA kit, Catalog No. […] (Pierce Biotechnology, Inc., Rockford, Ill. USA). Hypoxic conditions are created for the cells by treating them with desferrioxamine (DFO), which chelates iron and causes the cells to secrete VEGF into the media. The supernatant (media) was removed and frozen for testing, and the cells were counted with the Trypan Blue assay so that the results can be normalized to cell count. The VEGF is measured with a sandwich ELISA that captures the protein in media on an antibody-coated microplate, and then uses a biotinylated antibody reagent to detect the protein. Results from a standard curve enable the user to quantify the amount of protein in each sample.

A further assay has as its system MCP-1. The experiment in a line: MCP-1 protein production in TNF-α-treated primary human keratinocytes. The class given is cell-based. On the procedure:
Anti-inflammatory activity was determined based on the effect of tested compounds on primary human keratinocytes (PHKs). PHKs play an important role in inflammatory processes, synthesizing a number of cytokines, adhesion molecules and growth factors. Studies were conducted to determine whether tested compounds could inhibit keratinocytes to prevent or reduce production of interferon gamma (IFN-γ), interleukin-8 (IL-8), tumor necrosis factor alpha (TNF-α), granulocyte/macrophage colony-stimulating factor (GM-CSF), intercellular adhesion molecule-1 (ICAM-1, also known as CD54) and monocyte chemotactic protein-1 (MCP-1). PHKs are first treated with TNF-α to induce a pro-inflammatory state and release of pro-inflammatory cytokines. Specific cytokines are then assayed following manufacturer's instructions using R&D Systems. Inc.'s protein assays (Quantikine ELISA kits; Catalog Nos. DCP00 for MCP-1 kit, DCM00 for GM-CSF kit, and DIF50 for IFN-γ).
Anti-inflammatory activity of several of the compounds of the previously described working examples was determined based on the effect of tested compounds on primary human keratinocytes (PHKs) as described above and following the manufacturer's instructions for the various kits used in the studies. While these studies more typically are used mostly for anti-inflammatory investigations, they can also apply to vascular diseases, since the results in keratinocytes may be extrapolated to vascular endothelium.
Only MCP-1 data with PHKs is dose-dependent, so an IC50 for MCP-1 can be calculated, but not for the other cytokines.

Assay [2] relates to apoptosis of cells based on DNA fragmentation. The assay is described as follows: TiterTACS DNA fragmentation apoptosis assay. The class given is cell-based. The conditions noted are these: TiterTACS apoptosis detection. On the procedure: Antiproliferative activity is determined using the TiterTACS® Apoptosis Detection Kit (R&D Systems Inc., Minneapolis, Minn. USA) relating to apoptosis of cells based on DNA fragmentation, and by the ELISA VEGF ([…]) and survivin assays.
In the DNA fragmentation assay, in situ detection of apoptosis is specifically achieved with TiterTACS® 96-well Apoptosis Detection kit, Catalog No. TA600 (R&D Systems, Inc.). The TiterTACS® assay provides quantification of apoptosis in cultured cells without direct counting of labeled cells using colorimetric detection. Cells are treated with the test compounds, left untreated as experimental negative controls, or treated with TACS nuclease as positive controls. TACS nuclease allows positive controls to be generated for each experimental system: a brief treatment of cells with the TACS nuclease prior to labeling generates DNA breaks in every cell, providing an appropriate positive control specific for the system under study. The TdT enzyme that catalyzes the addition of dNTPs to DNA fragments allows for colorimetric detection of at 450 nm by using a streptavidin-HRP solution followed by the TACS-Sapphire substrate. A high absorbance at 450 nm is indicative of apoptosis in the cells. Treated cells are compared to untreated cells and to nuclease-cleaved cells to assess the extent of apoptosis.

In a further assay the test system is A549 (lung carcinoma). The assay is described as follows: MTS cell viability assay, A549. As to conditions: Homo sapiens. In kind it is cell-based.
Description: as §1, §2, §3, §4

In the next assay the test system is survivin. The assay is described as follows: ELISA survivin assay (cell lysates). The class given is cell-based, Human. The conditions noted are these: survivin protein in cell lysates, normalized to total protein; read-out: Survivin IC50. The text has this: Survivin is an inhibitor of apoptosis that is abundantly expressed in many human cancers, but not in normal adult human tissue, and is considered a possible modulator of the terminal effector phase of cell death/survival. Survivin is expressed in G2-M in a cell cycle-dependent manner, binding directly to mitotic spindle microtubules. […] Phosphorylated survivin acts on the caspase pathway to suppress the formation of caspase-3 and caspase-9, thereby inhibiting apoptosis. Thus, compounds that reduce the expression of survivin will be expected to increase the rate of apoptosis and cell death.
Effects of the tested compounds on survivin were studied following manufacturer's instructions using the Surveyor™ IC Human Total Survivin Immunoassay, Catalog No. SUV647 (R&D Systems, Inc.). Cell lysates were analyzed for survivin protein content. The kit includes a plate coated with an antibody specific for survivin and a biotinylated antibody reagent that recognizes survivin bound to the plate. The plate is read on a plate reader set at 450 nm and corrected at 540 nm. A protein assay according to the Bradford method (Bradford, M. 1976, Anal Biochem 72: 248-254) was used to quantify and normalize the samples according to total protein content. Results from a standard curve enable the user to quantify the amount of survivin protein in each sample.
In general terms: ELISA stands for enzyme-linked immunosorbent assay.

In assay [3] the test system is TAT-mediated transactivation of HIV transcription (HIV-1 LTR promoter). The assay is described as follows: SEAP assay of TAT-mediated transactivation (antiviral activity). The class given is cell-based, human immunodeficiency virus (HIV). The conditions noted are these: Human immunodeficiency virus 1, COS-7, 48 h, read-out: SEAP EC50. As for the experimental part:
Antiviral activity is determined using a SEAP (SEcreted Alkaline Phosphatase) assay, in which cells are co-transfected with SEAP and TAT plasmids. TAT is a transactivator, human immunodeficiency virus (HIV) gene expression and is one of the two or more necessary viral regulatory factors (TAT and REV) for HIV gene expression. TAT acts iv binding to the TAR RNA element and activating transcription from the long terminal repeat (LTR) promoter. […] Previous studies have shown that TAT mediates reduction of antibody-dependent T cell proliferation, contributing substantially to the failure of the immune response. TAT also directly stimulates Kaposi's cell growth.
Since TAT has no apparent cellular homologs, this strong positive regulator has become an attractive target for the development of anti-AIDS drugs. In contrast to currently available HIV reverse transcriptase inhibitors (AZT, DDI) or potential protease inhibitors that prevent new rounds of infection, an inhibitor which suppresses viral gene TAT regulated expression of integrated proviral DNA will arrest the virus at an early stage (Hsu et al., Science 254:1799-1802, 1991). Efforts aimed at the elucidation of factors which control gene expression at transcriptional and post-transcriptional levels in host eukaryotes have recently made possible quantitative assessment of TAT function (Sim, Ann. N.Y. Acad. Sci. 616: 64-70, 1990). To screen for inhibitors for TAT regulated transactivation (TAT-TRS), the SEAP reporter gene is put under the control of HIV-1 LTR promoter in the plasmid pBC12/HIV/SEAP. The TAT-coded activity is supplied by a second plasmid construct pBC12/CMV/t2. Transient co-transfection of COS-7 cells with these two plasmids leads to secretion of alkaline phosphatase into the culture medium which is analyzed by a simple colorimetric assay (Berger et al., Gene 66: 1-10, 1988). […]
In the SEAP assay, an inhibitor should cause reduction of SEAP reporter gene expression via transactivation of the HIV-1 LTR promoter by TAT protein (TAT-TRS). […] SEAP is detected colorimetrically by the para-nitrophenyl phosphate substrate at 405 nm. […] The cells are analyzed by the MTT assay to compare cytotoxicity to SEAP inhibition. […]
COS-7 (green monkey kidney) cells were co-transfected using Fugene 6 reagent (Roche Applied Science, Cat. No. 11815091001, Indianapolis, Ind., USA) with two plasmids: pHIVSEAP (SEAP expression vector under the control of the HIV LTR promoter) and pCTAT (HIV TAT transcription factor expression vector under the control of a CMV (cytomegalovirus) promoter). After test compound treatment for 48 hours, samples were analyzed for […] at 405 nm after addition of the p-nitrophenyl phosphate substrate. The percentage of SEAP activity inhibition was calculated in relation to the placebo control.

In a further assay the test system is COS-7 cells. The assay is described as follows: MTT cytotoxicity assay in COS-7 cells (run with SEAP). In kind it is cell-based, green monkey. As to conditions: Chlorocebus sabaeus, COS-7 test cells of the SEAP assay.
Setting [4] is: TNF-α-treated PHK; read-out: MCP-1 IC50.
The mark [5] stands for this setting: A549, MTS assay, read-out: A549 IC50.

Description for COS-7 cells: The MTT assay is a colorimetric method for determining the number of viable cells. Metabolically active cells turn the MIT reagent, (3-(4,5-dimethylthiazol-2-yl)-2,5-diphenyltetrazolium bromide, into purple-colored formazan crystals that are solubilized in dimethyl sulfoxide (DMSO). The MTT reagent is added to MTT (colorless) media. The media is added to the cells and they are incubated for 4 hours. DMSO is added to the cells and mixed. The colored solutions are then read at 540 nm and corrected at 630 nm. The IC50 is estimated by graphing the gathered data.
The cells are analyzed by the MTT assay to compare cytotoxicity to SEAP inhibition. The goal is for the drug to inhibit SEAP without being too toxic.
The MTT assay measures cellular-proliferation and is used to verify that the levels of SEAP activity are not solely due to cytotoxicity. These assays was used in screening for potential drug compound leads as antiviral agents, and particularly, anti-HIV candidates.

The term IC50 denotes the concentration needed to halve the response being measured. On to `C[C@H](Cc1ccc(OCCCN2CCCCC2)c(OCCCN2CCCCC2)c1)[C@@H](C)Cc1ccc(OCCCN2CCCCC2)c(OCCCN2CCCCC2)c1.Cl.Cl.Cl.Cl` [Compound B, 1,4-bis{3,4-bis[3-(piperidin-1-yl)propoxy]phenyl}-2,3-dimethyl-(2R,3S)-butane tetrakis-hydrochloride salt], for which the IC50 in assay [1] (MTS assay) is 1 to 5 µM; in the assay on VEGF, ~2 µM and 2 µM; in the assay with MCP-1 (setting [4]), 2 µM. For the same compound, the DNA fragmentation result in assay [2] was “Negative”.
On to `C[C@H](Cc1ccc(OCCCCN2CCCCC2)c(OCCCCN2CCCCC2)c1)[C@@H](C)Cc1ccc(OCCCCN2CCCCC2)c(OCCCCN2CCCCC2)c1` [Compound D, 1,4-bis{3,4-bis[4-(N-piperidino)butoxyl]phenyl}-2,3-dimethyl-(2R,3S)-butane tetrakis-hydrochloride salt], for which the IC50 in the assay with A549 (lung carcinoma) (setting [5]) is 1 to 5 µM; in the assay with survivin, ~4 µM and 4 µM; in assay [1] (Homo sapiens, HeLa, MTS assay), 5 to 10 µM; in the assay on VEGF it was ~9 µM and 9 µM. Also, in assay [2], the DNA fragmentation result was “Positive”.
By EC50 is commonly meant the concentration at which the effect is half-maximal. For the compound `C[C@H](Cc1ccc(OCCO)c(OCCO)c1)[C@@H](C)Cc1ccc(OCCO)c(OCCO)c1` [Compound I, 1,4-bis{3,4-bis(2-hydroxyethoxy)phenyl}-2,3-dimethyl-(2R,3S)-butane], the IC50 in the assay on A549 (lung carcinoma) (A549, read-out: A549 IC50) is 65 to 70 µM; in assay [1] (Homo sapiens, HeLa), 20 to 30 µM; with MCP-1 (read-out: MCP-1 IC50; TNF-α-treated PHK), 25 µM. The EC50 in assay [3] lay in the range of 60 to 80 µM.
As to `C[C@H](Cc1ccc(OCCOCCO)c(OCCOCCO)c1)[C@@H](C)Cc1ccc(OCCOCCO)c(OCCOCCO)c1` [Compound J, 1,4-bis{3,4-bis[2-(2-hydroxyethoxy)ethoxyl]phenyl}-2,3-dimethyl-(2R,3S)-butane], the IC50 in the assay on A549 (lung carcinoma) (setting [5]) is 80 to 90 µM; in assay [1] (Homo sapiens, HeLa, MTS assay) it was more than 100 µM; with MCP-1 (setting [4]), 70 µM; in the assay with COS-7 cells, 80 to 90 µM. In assay [3], the half-maximal effective concentration (EC50) lay in the range of 80 to 90 µM.

Values taken from patent US20150374709A1, “TETRA-SUBSTITUTED NDGA DERIVATIVES VIA ETHER BONDS AND CARBAMATE BONDS AND THEIR SYNTHESIS AND PHARMACEUTICAL USE” (ERIMOS PHARMACEUTICALS LLC, priority 2006, published 2015).
